The results in this text go back to PubChem BioAssay AID1919002 (Molecular Pharmacology Branch, DTP, NCI, 2023).

Where “and” joins values, the source holds several entries; their conditions need not be identical. Equal values may be shown once.

In the assay the test system is 743489-274-T-PDC complex spheroid growth. In words: Anticancer human tumor 743489-274-T-PDC patient-derived renal cell carcinoma cell line growth inhibition [AhR]. The note with it: for viability, T/C: stronger effect = lower value. In short, it runs like this:
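Complex tumor spheroids co-cultured with HUVEC and human MSC stroma; AhR antagonists tested in combination with standard-of-care and investigational agents. Top concentration at or near clinical Cmax (else 10 microM), half-log dilutions; growth expressed as percent test/control.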

Where [1] appears, read: curve of first compound, second compound 0.1 µM.
Where [2] appears, read: curve of first compound, second compound 0.316 µM.
Setting [3] is: curve of first compound, second compound 1 µM.
The mark [4] stands for this setting: curve of first compound, second compound 3.16 µM.
[5] abbreviates: curve of first compound, second compound 10 µM.
Setting [6] is: second compound 0.1 µM, first compound 0.0316 µM.
The mark [7] stands for this setting: second compound 0.1 µM, first compound 0.1 µM.
[8] abbreviates: second compound 0.1 µM, first compound 0.316 µM.
The mark [9] stands for this setting: second compound 0.1 µM, first compound 1 µM.
[10] abbreviates: second compound 0.1 µM, first compound 3.16 µM.
The mark [11] stands for this setting: second compound 0.1 µM, first compound 10 µM.
Where [12] appears, read: second compound 0.316 µM, first compound 0.0316 µM.
Where [13] appears, read: second compound 0.316 µM, first compound 0.1 µM.
Setting [14] is: second compound 0.316 µM, first compound 0.316 µM.
Setting [15] is: second compound 0.316 µM, first compound 1 µM.
Setting [16] is: second compound 0.316 µM, first compound 3.16 µM.
The mark [17] stands for this setting: second compound 0.316 µM, first compound 10 µM.
Setting [18] is: second compound 1 µM, first compound 0.0316 µM.
Setting [19] is: second compound 1 µM, first compound 0.1 µM.
The mark [20] stands for this setting: second compound 1 µM, first compound 0.316 µM.
[21] abbreviates: second compound 1 µM, first compound 1 µM.
Where [22] appears, read: second compound 1 µM, first compound 3.16 µM.
The mark [23] stands for this setting: second compound 1 µM, first compound 10 µM.
Where [24] appears, read: second compound 3.16 µM, first compound 0.0316 µM.
Setting [25] is: second compound 3.16 µM, first compound 0.1 µM.
[26] abbreviates: second compound 3.16 µM, first compound 0.316 µM.
Setting [27] is: second compound 3.16 µM, first compound 1 µM.
[28] abbreviates: second compound 3.16 µM, first compound 3.16 µM.
[29] abbreviates: second compound 3.16 µM, first compound 10 µM.
Setting [30] is: second compound 10 µM, first compound 0.0316 µM.
[31] abbreviates: second compound 10 µM, first compound 0.1 µM.
Where [32] appears, read: second compound 10 µM, first compound 0.316 µM.
The mark [33] stands for this setting: second compound 10 µM, first compound 1 µM.
Where [34] appears, read: second compound 10 µM, first compound 3.16 µM.
[35] abbreviates: second compound 10 µM, first compound 10 µM.
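Note: spheroids exposed to agents for 7 days before readout.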
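Throughout, for viability, T/C: 100% = DMSO vehicle control wells.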

Turning to `CCN(c1cc(-c2ccc(CN3CCOCC3)cc2)cc(C(=O)NCc2c(C)cc(C)[nH]c2=O)c1C)C1CCOCC1` + Cc1ccccc1N=Nc1ccc(NC(=O)c2ccnn2C)c(C)c1, the IC50 (as a rule, the concentration at which inhibition is half-maximal) by setting is: under setting [1], greater than 3 µM; under setting [2], greater than 3 µM; under setting [3], greater than 3 µM; under setting [4], greater than 3 µM; under setting [5], greater than 3 µM. The viability, T/C (usually the ratio of treated to control) was 91.2% (second compound 0.1 µM, first compound 0.00949 µM); 88.2% (second compound 0.1 µM, first compound 0.03 µM); 93.7% (second compound 0.1 µM, first compound 0.0949 µM); 84.5% (second compound 0.1 µM, first compound 0.3 µM); 90.8% (second compound 0.1 µM, first compound 0.949 µM); 90.4% (second compound 0.1 µM, first compound 3 µM). Also, the viability, T/C is 82.1% (second compound 0.316 µM, first compound 0.00949 µM); 93.3% (second compound 0.316 µM, first compound 0.03 µM); 86.2% (second compound 0.316 µM, first compound 0.0949 µM); 77.3% (second compound 0.316 µM, first compound 0.3 µM); 86.6% (second compound 0.316 µM, first compound 0.949 µM); 84.2% (second compound 0.316 µM, first compound 3 µM). For the same molecule, the viability, T/C is 88.6% (second compound 1 µM, first compound 0.00949 µM); 83.2% (second compound 1 µM, first compound 0.03 µM); 89.5% (second compound 1 µM, first compound 0.0949 µM); 94.3% (second compound 1 µM, first compound 0.3 µM); 81% (second compound 1 µM, first compound 0.949 µM); 99.6% (second compound 1 µM, first compound 3 µM). Besides, the viability, T/C was 76% (second compound 3.16 µM, first compound 0.00949 µM); 77% (second compound 3.16 µM, first compound 0.03 µM); 77.2% (second compound 3.16 µM, first compound 0.0949 µM); 74.5% (second compound 3.16 µM, first compound 0.3 µM); 81% (second compound 3.16 µM, first compound 0.949 µM); 82% (second compound 3.16 µM, first compound 3 µM). Moreover, the viability, T/C is, setting by setting: (second compound 10 µM, first compound 0.00949 µM) 72.2%; (second compound 10 µM, first compound 0.03 µM) 84.3%; (second compound 10 µM, first compound 0.0949 µM) 85.9%; (second compound 10 µM, first compound 0.3 µM) 71.7%; (second compound 10 µM, first compound 0.949 µM) 77.9%; (second compound 10 µM, first compound 3 µM) 73.1%.

`COc1cc(C2c3cc4c(cc3C(OC3OC5COC(C)OC5C(O)C3O)C3COC(=O)C23)OCO4)cc(OC)c1O` (stereo unspecified) + CC(CO)NC(=O)c1cc(-c2ccc(Cl)cc2)nn(-c2cnn(C)c2)c1=O: the IC50 under setting [1] is greater than 10 µM; the IC50 under setting [2] is greater than 10 µM; the IC50 under setting [3] is greater than 10 µM; the IC50 under setting [4] was greater than 10 µM; the IC50 under setting [5] is greater than 10 µM. Moreover, the viability, T/C under setting [6] was 107%; the viability, T/C under setting [7] is 114%; the viability, T/C under setting [8] is 95.1%; the viability, T/C under setting [9] is 95.9%; the viability, T/C under setting [10] is 99.6%; the viability, T/C under setting [11] was 97%. Moreover, the viability, T/C is 99.3% under setting [12]; 118% under setting [13]; 108% under setting [14]; 93.5% under setting [15]; 92% under setting [16]; 90.7% under setting [17]. In addition, the viability, T/C by setting is: under setting [18], 98.6%; under setting [19], 96.4%; under setting [20], 101%; under setting [21], 103%; under setting [22], 86.6%; under setting [23], 94.9%. The viability, T/C under setting [24] was 99.9%; the viability, T/C under setting [25] is 97%; the viability, T/C under setting [26] is 102%; the viability, T/C under setting [27] was 95.4%; the viability, T/C under setting [28] is 97.7%; the viability, T/C under setting [29] is 90.9%. Moreover, the viability, T/C runs as follows: under setting [30], 108%; under setting [31], 109%; under setting [32], 103%; under setting [33], 106%; under setting [34], 97%; under setting [35], 92.1%.

Take `COc1cccc2c1C(=O)c1c(O)c3c(c(O)c1C2=O)CC(O)(C(=O)CO)CC3OC1CC(N)C(O)C(C)O1` (stereo unspecified) + Cc1ccccc1N=Nc1ccc(NC(=O)c2ccnn2C)c(C)c1: the IC50 turned out to be 5.54 µM under setting [1]; 5.43 µM under setting [2]; 9.11 µM under setting [3]; 8.62 µM under setting [4]; 4.79 µM under setting [5]. Besides, the viability, T/C is 102% under setting [6]; 97.3% under setting [7]; 114% under setting [8]; 102% under setting [9]; 73.3% under setting [10]; 25.6% under setting [11]. Besides, the viability, T/C is 107% under setting [12]; 96.8% under setting [13]; 99.7% under setting [14]; 105% under setting [15]; 81.4% under setting [16]; 14.5% under setting [17]. The viability, T/C reads like this: under setting [18], 96%; under setting [19], 101%; under setting [20], 98.6%; under setting [21], 95.2%; under setting [22], 80.4%; under setting [23], 47.3%. The viability, T/C is, setting by setting: under setting [24], 90%; under setting [25], 88.8%; under setting [26], 105%; under setting [27], 96%; under setting [28], 87.3%; under setting [29], 44.3%. The viability, T/C under setting [30] was 85.3%; the viability, T/C under setting [31] is 82.2%; the viability, T/C under setting [32] is 95.1%; the viability, T/C under setting [33] was 83.5%; the viability, T/C under setting [34] was 71.9%; the viability, T/C under setting [35] is 11.7%.

Take `NS(=O)(=O)OCC1CC(n2ccc3c(NC4CCc5ccccc54)ncnc32)CC1O` (stereo unspecified): the viability, T/C was 102% and 104% and 93.9% (compound 0.0316 µM); 105% and 121% and 96.2% (compound 0.1 µM); 114% and 108% and 103% (compound 0.316 µM); 132% and 136% and 138% (compound 1 µM); 137% and 132% and 156% (compound 3.16 µM); 150% and 128% and 161% (compound 10 µM). For the same molecule, the IC50 (curve of compound) is greater than 10 µM.

In the case of `Nc1ccccc1NC(=O)c1ccc(CNC(=O)OCc2cccnc2)cc1`, the viability, T/C is, setting by setting: (compound 0.0316 µM) 95% and 98.2% (2×); (compound 0.1 µM) 91.3% and 103% (2×); (compound 0.316 µM) 82.6% and 96.2% and 85.1%; (compound 1 µM) 75.5% and 87.3% and 72.5%; (compound 3.16 µM) 57.6% and 59% and 59.5%; (compound 10 µM) 45.6% and 37.9% and 39.1%. The IC50 (curve of compound) is 6.73 µM and 5.17 µM and 5.09 µM.

Turning to `O=C(c1cc(Cc2n[nH]c(=O)c3ccccc23)ccc1F)N1CCN(C(=O)C2CC2)CC1`, the viability, T/C (compound 0.0316 µM) is 95.7% and 110% and 102%; the viability, T/C (compound 0.1 µM) was 101% and 105% and 113%; the viability, T/C (compound 0.316 µM) was 103% (2×) and 97.1%; the viability, T/C (compound 1 µM) is 92.9% and 102% and 112%; the viability, T/C (compound 3.16 µM) is 102% and 101% and 109%; the viability, T/C (compound 10 µM) was 96.3% and 110% and 106%. Further, the IC50 (curve of compound) is greater than 10 µM.
